# Measured values reported in patent US11958842B2, “Substituted phenazines and methods of treating cancer and bacterial diseases” (Adjutec Pharma AS, priority 2016, dated 2024).
# Read-outs that look alike come from different tables or passages of the source.
# What was measured:
# [1] = test system: hepG2; test: Cytotoxicity (Example 73, Table 2); type: cell-based; conditions: Homo sapiens, read-out: EC50 (μM) hepG2
# [2] = test system: normal rat kidney epithelial (NRK) cells; test: Cytotoxicity, WST-1 and nuclear morphology (Example 73); type: cell-based
# Procedure: (§1) All cell culturing media and serum were from Sigma-Aldrich (St. Louis, Mo., USA). Product Nos. are given in parentheses. The human acute myeloid leukemia cell line MOLM-13 was cultured in RPMI medium (R5886) enriched with […] (F7524) and 0.2 mM L-glutamine (G7513). The normal rat kidney epithelial (NRK) and the rat cardiomyoblast (H9c2) cells were cultured in DMEM medium (D6429) enriched with 10% fetal bovine serum (F7524). All cell lines were additionally supplemented with 100 IU/mL penicillin and […] (P0781). The cells were cultured in a humidified atmosphere either under 2% or 20% O2 at 37° C.
# (§2) All analogues were dissolved in DMSO (D5879, Sigma-Aldrich) at concentrations between 2.5 and 20 mM before testing. For cytotoxic testing, the MOLM-13 cells were seeded as 20,000 cells/well, while NRK and H9c2 cells were seeded as 5,000 cells/well in 96-well Microplates (#167008, Thermo Scientific™ Nunc™ MicroWell™) with 100 μL medium/well. The cells were exposed to various concentrations of iodinin or its analogues for 24 hrs before the cell proliferation reagent WST-1 was used to assess the viability, in accordance with the manufacturer's instructions (11644807001, Roche Diagnostics, Sigma-Aldrich). The cells were next fixed in 2% buffered formaldehyde (pH 7.4) with the DNA-specific dye Hoechst 33342 (Polysciences Inc.) and assessed for cell death by UV-microscopy based on nuclear morphology. The highest concentration of analogue corresponded to 1% of DMSO, which alone gave less than 7% cell death as judged by nuclear morphology.
# (§3) EC50 values were determined by analyses of WST-1 signal results as well as microscopic evaluation of cell death by four-parameter regression analyses using the SigmaPlot software (Systat Software inc. San Jose, Calif.):
# (§4) [formula] where Y is the response (WST-1 signal or percent apoptosis), min and max are minimum and maximum response, X is concentration of analogue, EC50 equals the point of inflection, i.e. the point that gives half of maximum response, and h is the Hill's slope of the curve. The two methods gave consistent response curves for each analogue. In the case of Tirapazamine, where its colour interfered with the WST-1 signal, only microscopic evaluation of Hoechst stained cells was used in order to calculate its EC50 values.
# [3] = test system: rat cardiomyoblast (H9c2) cells; test: as above; type: cell-based; conditions: read-out: EC50 (μM) H9c2 19% O2
# Procedure: as §1, §2, §3, §4
# [4] = test system: human acute myeloid leukemia cell line MOLM-13; test: as above; type: cell-based
# Procedure: as §1, §2, §3, §4
# [5] = Parallel artificial membrane permeability assay (PAMPA); conditions: for Permeability: PAMPA class by ranges of Bennion et al.; for LogPeff: PAMPA, 50 μM in PBS, room temperature, five hours
# Procedure: The Corning Gentest™ pre-Coated parallel artificial membrane permeability assay PAMPA Plate System was from Cording Discovery Labware (Bedford, USA). The compounds were tested in room temperature at 50 μM using PBS as buffer. A total of 300 μl of the compound solution was added to each well of the donor plate, and 200 μl of PBS was added to the receiver filter plate. After incubation for five hours, 50 μl of the donor or acceptor well were injected into a reversed phase HPLC column (Kromasil 100-5 C18 150-4.6 mm, Akzo Nobel, Sweden) connected to a Merck-Hitachi LaChrome HPLC-system (VWR, WestChester, USA) with a L-7455 diode array detector. Mobile phase A was 0.05% aqueous TFA, and mobile phase B was acetonitrile. The flow rate was 1.6 ml/min and compounds eluted between 1 and 4.5 minutes was eluted during a 6.5 min gradient from 90:10% mobile phase A:B to 0:100% mobile phase A:B. The ratio of the compound concentrations in the donor and acceptor compartment was calculated after integration of the peaks at 285 nm. Peff was calculated as described in [Bennion B J, Be N A, McNerney M W, Lao V, Carlson E M, Valdez C A, et al. Predicting a Drug's Membrane Permeability: A Computational Model Validated With in Vitro Permeability Assay Data. The journal of physical chemistry B. 2017; 121(20):5228-37.]. Membrane permeability were classified by the range defined by Bennion et al., allowing for us to divide the compounds into four groups, compounds with high permeability (LogPeff>−5.33), intermediate permeability (LogPeff>−5.66 and <−5.33), low permeability (LogPeff>−6.14 and <−5.66) impermeable (LogPeff<−6.14).
# [6] = test system: methicillin-resistant S. aureus MRSA A4-37; test: Microbroth dilution MIC; type: cell-based; conditions: compound alone
# Procedure: (§5) Day 1: • Plate bacterial strain(s) on appropriate media: • Gram-negative bacteria with ESBLs or carbapenemases: green agar plates with 100 mg/L ampicillin • Gram-negative bacteria without β-lactamases: green agar plates • Gram-positive bacteria (Staphylococci and Enterococci): blood agar plates • Incubate o.n. at 37° C.
# (§6) Prepare the Bacterial Inoculum: • Prepare a 0.5 McFarland suspension of bacteria in 0.85% NaCl. (Should be used within 15 min of preparation). • Dilute the 0.5 McFarland suspension 1:100 into MH broth.
# (§7) Check the inoculum by diluting the prepared bacterial suspension 1:100 (10 μl bacterial suspension+990 μl 0.85% NaCl). Plate 10 μl of the dilution on MH agar plates (×2). Incubate o.n. at 37° C., count the colonies and calculate the final CFU/ml inoculum in the plate by multiplying the average number of colonies with 10000 and divide by 2. The final inoculum should be between 3-7×10^5 CFU/ml. • Add 50 μl of the prepared bacterial suspension to each well in the microtiter plate except negative growth control.
# (§8) Preparation of Compounds/Antibiotics • Calculate the desired concentration-range and volume of the compounds/antibiotics in the assay. For antibiotics this will depend on the MIC to meropenem of the bacterial strains to be tested. Dilute the stock solution in MH broth. Make subsequent 2-fold dilutions in MH broth of the desired concentrations if a concentration range is to be tested (remember the extra dilution factor in the assay plate). Always include extra volume for pipetting. Take into consideration stock solutions that are made in buffers that have an effect on bacterial growth (e.g. DMSO).
# (§9) This experimental design was used for the results in Tables 4 and 5 below. In Table 4, inhibitor concentration dependency on the MIC of meropenem was studied.
# [7] = test system: vancomycin-resistant E. faecium vanA A1-22; test: Microbroth dilution MIC; type: cell-based; conditions: compound alone
# Procedure: as §5, §6, §7, §8, §9
# [8] = test system: Molm13 cells; test: Anti-AML activity, WST-1 viability (Example 72); type: cell-based; conditions: Homo sapiens, MOLM-13, 24 h
# Procedure: Dry powder of analogs were dissolved in DMSO. IPC-18 rat AML cells (Lacaze, N. et al. Leuk. Res. 1983, 7, 145.) were cultured in DMEM medium (Sigma-Aldrich, St. Louis, Mo., USA) supplemented with 10% horse serum (Invitrogen, Carlsbad, Calif., USA), and antibiotics (50 U/mL of penicillin and 0.05 mg/mL streptomycin). Molm13 (Matsuo, Y. et al. Leukemia 1997, 11, 1469.) cells were cultured in RPMI supplemented with antibiotics (50 U/mL of penicillin and 0.05 mg/mL streptomycin) and 10% fetal bovine serum (FBS, Invitrogen, Carlsbad, Calif.) and kept in exponential growth before the experiments. Dilution series of iodinin analogs were added to medium and cell suspension added to reach a final cell concentration of 150 000 cells/ml in 0.1 mL in a 96 well tissue culture plate. […] The cells were incubated with the iodinin analogs for 22 h before WST-1 was added according to the manufacturers protocol, and the cells incubated further in 2 h. Mitochondrial conversion of WST-1 to its colored metabolite was measured by a plate reader at 450 nm, with 620 nm as the reference wavelength. The cells were next fixed by adding 4% buffered formaldehyde (PBS, pH 7.4, supplemented with 0.01 mg/mL Hoechst 33342 for nuclear visualization) to the cell suspension at 1:1 (v/v) ratio (final concentration of formaldehyde:[…]). The cells' nuclear and surface morphology were examined microscopically and results compared with the WST-1 viability assay. The results given in Table I are based on WST-1 data.
# [9] = Rattus norvegicus, 24 h, read-out: EC50 (μM) NRK 2% O2, NRK, 2% O2, 24 hours of incubation
# [10] = Rattus norvegicus, 24 h, read-out: EC50 (μM) NRK 19% O2, NRK, 19% O2, 24 hours of incubation
# [11] = H9c2, 19% O2, 24 hours of incubation
# [12] = MOLM-13, 2% O2, 24 hours of incubation, read-out: EC50 (μM) MOLM-13 2% O2
# [13] = MOLM-13, 19% O2, 24 hours of incubation, read-out: EC50 (μM) MOLM-13 19% O2
# [14] = read-out: EC50 (μM) NRK 2% O2, 2% O2, 24 hours of incubation
# [15] = read-out: EC50 (μM) NRK 19% O2, 19% O2, 24 hours of incubation
SMILES,LogPeff [5],"EC50 ([1]; HepG2, 24 h) [µM]","EC50 [2, 9] [µM]","EC50 [2, 10] [µM]","EC50 [3, 11] [µM]","EC50 [4, 12] [µM]","EC50 [4, 13] [µM]",MIC A4-37 S. aureus MRSA [6] [µg/mL],MIC A1-22 E. faecium vanA [7] [µg/mL],other results
"CCOC(=O)COc1cccc2c1[n+]([O-])c1cc(Cl)c(Cl)cc1[n+]2[O-] [Example 6c, 7,8-dichloro-1-(2-ethoxy-2-oxoethoxy)phenazine 5,10-dioxide]",−5.42,,,,,,,,,"EC50 ([1]; hepG2, 24 hours of incubation): 12 µM; EC50 ([2]; Rattus norvegicus, 2% O2, 24 hours of incubation, read-out: EC50 (μM) NRK 2% O2): 4.7 ± 0.09 µM; EC50 ([2]; Rattus norvegicus, 19% O2, 24 hours of incubation, read-out: EC50 (μM) NRK 19% O2): 3.1 ± 0.02 µM; EC50 ([3]; Rattus norvegicus, H9c2, 19% O2, 24 hours of incubation): 1.3 ± 0.2 µM; EC50 ([4]; Homo sapiens, MOLM-13, 2% O2, 24 hours of incubation, read-out: EC50 (μM) MOLM-13 2% O2): 0.38 ± 0.04 µM; EC50 ([4]; Homo sapiens, MOLM-13, 19% O2, 24 hours of incubation, read-out: EC50 (μM) MOLM-13 19% O2): 0.41 ± 0.05 µM; Permeability [5]: Intermediate/high"
"COc1cccc2c1[n+]([O-])c1cccc(OC(=O)N3CCN(C)CC3)c1[n+]2[O-] [Example 8b, 1-methoxy-6-((4-methylpiperazine-1-carbonyl)oxy)phenazine 5,10-dioxide]",−5.77,90,39 ± 4.2,26 ± 2.1,26 ± 0.9,0.98 ± 0.08,1 ± 0.06,,,
"CN1CCN(C(=O)Oc2cccc3c2[n+]([O-])c2ccccc2[n+]3[O-])CC1 [Example 8c, 1-((4-methylpiperazine-1-carbonyl)oxy)phenazine 5,10-dioxide]",,,37 ± 1.9,25 ± 0.2,36 ± 11,1.9 ± 0.05,1.5 ± 0.18,< 4,8,IC50 ([8]; read-out: Molm 13 IC50 20% O2): 0.35 µM
"CN1CCN(C(=O)Oc2cccc3c2[n+]([O-])c2cc4ccccc4cc2[n+]3[O-])CC1 [Example 8e, 1-((4-methylpiperazine-1-carbonyl)oxy)benzo[b]phenazine 5,12-dioxide]",−5.38,45,,,,,,,,"EC50 [2, 14]: 15 ± 1.8 µM; EC50 [2, 15]: 10 ± 0.9 µM; EC50 ([3]; Rattus norvegicus, H9c2, 24 h): 3.2 ± 0.1 µM; EC50 ([4]; Homo sapiens, MOLM-13, 24 h, read-out: EC50 (μM) MOLM-13 2% O2): 0.32 ± 0.06 µM; EC50 ([4]; Homo sapiens, MOLM-13, 24 h, read-out: EC50 (μM) MOLM-13 19% O2): 0.34 ± 0.04 µM; Permeability [5]: Intermediate/high"
"CCN(CC)C(=O)Oc1cccc2c1[n+]([O-])c1cccc(O)c1[n+]2[O-] [Example 8i, 1-((diethylcarbamoyl)oxy)-6-hydroxyphenazine 5,10-dioxide]",,,,,,,,< 4,8,IC50 ([8]; read-out: Molm 13 IC50 2% O2): 0.74 µM; IC50 ([8]; read-out: Molm 13 IC50 20% O2): 0.76 µM
"COc1cccc2c1[n+]([O-])c1cccc(OC(=O)N(C)C)c1[n+]2[O-] [Example 8m, 1-((dimethylcarbamoyl)oxy)-6-methoxyphenazine 5,10-dioxide]",,,29 ± 0.7,22 ± 1.7,35 ± 1.8,1.7 ± 0.09,1.9 ± 0.07,< 4,63,
"COc1cccc2c1[n+]([O-])c1ccccc1[n+]2[O-] [Example 18, 1-methoxyphenazine 5,10-dioxide]",,,,,,,,< 2,32,
"CN1CCN(C(=O)Oc2cccc3c2[n+]([O-])c2cc(Br)c(Br)cc2[n+]3[O-])CC1 [Example 59, 7,8-dibromo-1-((4-methylpiperazine-1-carbonyl)oxy)phenazine 5,10-dioxide]",,40,,,2.2 ± 0.53,0.23 ± 0.03,0.41 ± 0.04,,,"EC50 [2, 14]: 7.6 ± 0.6 µM; EC50 [2, 15]: 6.2 ± 0.02 µM"
